Test results reported in PubChem BioAssay (NCI).
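In this assay, cells in 96-well plates receive the compound at five concentrations for 48 hours. Endpoints are linearly interpolated between the surrounding concentrations. At the GI50, growth is halved. TGI marks complete inhibition of growth.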

Legend:
Assay in all cases: NCI tumour cell line growth inhibition, 48 h
MDA-MB-435 = system: MDA-MB-435
HCT-116 colon = system: HCT-116 colon
SF-295 CNS = system: SF-295 CNS
SNB-19 CNS = system: SNB-19 CNS
CAKI-1 renal = system: CAKI-1 renal
MOLT-4 leukemia = system: MOLT-4 leukemia
K-562 leukemia = system: K-562 leukemia
HCT-15 colon = system: HCT-15 colon
ACHN renal = system: ACHN renal
OVCAR-4 ovarian = system: OVCAR-4 ovarian
SK-MEL-5 melanoma = system: SK-MEL-5 melanoma
EKVX NSCLC = system: EKVX NSCLC
A549 NSCLC = system: A549 NSCLC
U251 CNS = system: U251 CNS
SF-268 CNS = system: SF-268 CNS
LOX IMVI melanoma = system: LOX IMVI melanoma
RPMI-8226 leukemia = system: RPMI-8226 leukemia
PC-3 prostate = system: PC-3 prostate
DU-145 prostate = system: DU-145 prostate
A498 renal = system: A498 renal
SN12C renal = system: SN12C renal
HS 578T breast = system: HS 578T breast
SK-MEL-2 melanoma = system: SK-MEL-2 melanoma
HCC-2998 colon = system: HCC-2998 colon
NCI-H522 lung = system: NCI-H522 lung
SK-MEL-28 melanoma = system: SK-MEL-28 melanoma
786-0 renal = system: 786-0 renal
OVCAR-5 ovarian = system: OVCAR-5 ovarian
SR leukemia = system: SR leukemia
UACC-257 melanoma = system: UACC-257 melanoma
TK-10 renal = system: TK-10 renal
MDA-MB-231 breast = system: MDA-MB-231 breast
CCRF-CEM leukemia = system: CCRF-CEM leukemia
SK-OV-3 ovarian = system: SK-OV-3 ovarian
UACC-62 melanoma = system: UACC-62 melanoma
SF-539 CNS = system: SF-539 CNS
MCF7 breast = system: MCF7 breast
HT29 colon = system: HT29 colon
RXF 393 renal = system: RXF 393 renal
NCI/ADR-RES ovarian = system: NCI/ADR-RES ovarian
HL-60(TB) leukemia = system: HL-60(TB) leukemia
HOP-62 NSCLC = system: HOP-62 NSCLC
IGROV1 ovarian = system: IGROV1 ovarian
OVCAR-3 ovarian = system: OVCAR-3 ovarian
UO-31 renal = system: UO-31 renal
KM12 colon = system: KM12 colon
NCI-H23 lung = system: NCI-H23 lung
OVCAR-8 ovarian = system: OVCAR-8 ovarian
BT-549 breast = system: BT-549 breast
NCI-H226 lung = system: NCI-H226 lung
HOP-92 NSCLC = system: HOP-92 NSCLC
COLO 205 colon = system: COLO 205 colon
SW-620 colon = system: SW-620 colon
T-47D breast = system: T-47D breast
SNB-75 CNS = system: SNB-75 CNS
NCI-H460 lung = system: NCI-H460 lung
MALME-3M melanoma = system: MALME-3M melanoma

For `CCC(=C(c1ccc(OCCN(C)C)cc1)c1ccc(OCCN(C)C)cc1)c1ccc(Cl)cc1`, which GI50 (MDA-MB-435) is on record?
The GI50 was 0.575 µM.

What about the TGI (MDA-MB-435) of the same compound?
Its TGI is 1.41 µM.

And the GI50 (HCT-116 colon)?
Its GI50 is 2.58 µM.

And the TGI (HCT-116 colon)?
The TGI was 6.24 µM.

What about the GI50 (SF-295 CNS) of the same compound?
The GI50 was 3.09 µM.

And the TGI (SF-295 CNS)?
The TGI was 6.49 µM.

And the GI50 (SNB-19 CNS)?
The GI50 was 2.84 µM.

And the TGI (SNB-19 CNS)?
The TGI was 6.29 µM.

What about the GI50 (CAKI-1 renal) of the same compound?
The GI50 was 3.17 µM.

What about the TGI (CAKI-1 renal) of the same compound?
Its TGI is 6.48 µM.

And the GI50 (MOLT-4 leukemia)?
Its GI50 is 0.745 µM.

And the TGI (MOLT-4 leukemia)?
The TGI was 2.41 µM.

What about the GI50 (K-562 leukemia) of the same compound?
Its GI50 is 0.541 µM.

What about the TGI (K-562 leukemia) of the same compound?
The TGI was 1.77 µM.

What about the GI50 (HCT-15 colon) of the same compound?
The GI50 was 0.77 µM.

What about the TGI (HCT-15 colon) of the same compound?
Its TGI is 2.67 µM.

And the GI50 (ACHN renal)?
Its GI50 is 1.31 µM.

What about the TGI (ACHN renal) of the same compound?
Its TGI is 4.33 µM.

And the GI50 (OVCAR-4 ovarian)?
Its GI50 is 3.39 µM.

And the TGI (OVCAR-4 ovarian)?
Its TGI is 7.36 µM.

What about the GI50 (SK-MEL-5 melanoma) of the same compound?
The GI50 was 3.99 µM.

And the TGI (SK-MEL-5 melanoma)?
The TGI was 7.49 µM.

What about the GI50 (EKVX NSCLC) of the same compound?
Its GI50 is 3.85 µM.

And the TGI (EKVX NSCLC)?
Its TGI is 7.67 µM.

What about the GI50 (A549 NSCLC) of the same compound?
Its GI50 is 2.56 µM.

And the TGI (A549 NSCLC)?
Its TGI is 6.32 µM.

And the GI50 (U251 CNS)?
Its GI50 is 0.67 µM.

And the TGI (U251 CNS)?
Its TGI is 2.29 µM.

What about the GI50 (SF-268 CNS) of the same compound?
The GI50 was 3.54 µM.

What about the TGI (SF-268 CNS) of the same compound?
The TGI was 7.48 µM.

And the GI50 (LOX IMVI melanoma)?
The GI50 was 0.43 µM.

And the TGI (LOX IMVI melanoma)?
Its TGI is 0.848 µM.

What about the GI50 (RPMI-8226 leukemia) of the same compound?
The GI50 was 0.598 µM.

What about the TGI (RPMI-8226 leukemia) of the same compound?
The TGI was 1.46 µM.

What about the GI50 (PC-3 prostate) of the same compound?
Its GI50 is 1.26 µM.

And the TGI (PC-3 prostate)?
The TGI was 4.56 µM.

And the GI50 (DU-145 prostate)?
The GI50 was 3.11 µM.

What about the TGI (DU-145 prostate) of the same compound?
The TGI was 6.67 µM.

And the GI50 (A498 renal)?
The GI50 was 3.58 µM.

And the TGI (A498 renal)?
The TGI was 7.07 µM.

And the GI50 (SN12C renal)?
Its GI50 is 3.76 µM.

What about the TGI (SN12C renal) of the same compound?
Its TGI is 7.52 µM.

What about the GI50 (HS 578T breast) of the same compound?
Its GI50 is 3.48 µM.

What about the TGI (HS 578T breast) of the same compound?
Its TGI is 7.79 µM.

And the GI50 (SK-MEL-2 melanoma)?
The GI50 was 4.48 µM.

And the TGI (SK-MEL-2 melanoma)?
The TGI was 8.49 µM.

What about the GI50 (HCC-2998 colon) of the same compound?
Its GI50 is 2.04 µM.

What about the TGI (HCC-2998 colon) of the same compound?
Its TGI is 5.73 µM.

What about the GI50 (NCI-H522 lung) of the same compound?
The GI50 was 1.96 µM.

And the TGI (NCI-H522 lung)?
Its TGI is 5.77 µM.

And the GI50 (SK-MEL-28 melanoma)?
The GI50 was 0.462 µM.

What about the TGI (SK-MEL-28 melanoma) of the same compound?
Its TGI is 0.888 µM.

And the GI50 (786-0 renal)?
The GI50 was 3.7 µM.

What about the TGI (786-0 renal) of the same compound?
Its TGI is 7.72 µM.

And the GI50 (OVCAR-5 ovarian)?
Its GI50 is 3.91 µM.

What about the TGI (OVCAR-5 ovarian) of the same compound?
The TGI was 7.56 µM.

And the GI50 (SR leukemia)?
Its GI50 is 0.659 µM.

What about the TGI (SR leukemia) of the same compound?
Its TGI is 4.74 µM.

And the GI50 (UACC-257 melanoma)?
Its GI50 is 3.7 µM.

What about the TGI (UACC-257 melanoma) of the same compound?
Its TGI is 7.39 µM.

What about the GI50 (TK-10 renal) of the same compound?
The GI50 was 4.05 µM.

And the TGI (TK-10 renal)?
The TGI was 7.75 µM.

And the GI50 (MDA-MB-231 breast)?
The GI50 was 2.42 µM.

What about the TGI (MDA-MB-231 breast) of the same compound?
Its TGI is 5.75 µM.

What about the GI50 (CCRF-CEM leukemia) of the same compound?
Its GI50 is 0.609 µM.

And the TGI (CCRF-CEM leukemia)?
Its TGI is 1.79 µM.

And the GI50 (SK-OV-3 ovarian)?
Its GI50 is 4.26 µM.

What about the TGI (SK-OV-3 ovarian) of the same compound?
The TGI was 8.08 µM.

What about the GI50 (UACC-62 melanoma) of the same compound?
The GI50 was 0.492 µM.

What about the TGI (UACC-62 melanoma) of the same compound?
The TGI was 1.12 µM.

And the GI50 (SF-539 CNS)?
Its GI50 is 2.75 µM.

What about the TGI (SF-539 CNS) of the same compound?
Its TGI is 6.1 µM.

What about the GI50 (MCF7 breast) of the same compound?
The GI50 was 0.522 µM.

What about the TGI (MCF7 breast) of the same compound?
Its TGI is 1.67 µM.

And the GI50 (HT29 colon)?
Its GI50 is 0.427 µM.

What about the TGI (HT29 colon) of the same compound?
The TGI was 1.11 µM.

What about the GI50 (RXF 393 renal) of the same compound?
The GI50 was 0.897 µM.

What about the TGI (RXF 393 renal) of the same compound?
Its TGI is 4.15 µM.

And the GI50 (NCI/ADR-RES ovarian)?
The GI50 was 3.22 µM.

And the TGI (NCI/ADR-RES ovarian)?
Its TGI is 6.68 µM.

What about the GI50 (HL-60(TB) leukemia) of the same compound?
The GI50 was 0.522 µM.

And the TGI (HL-60(TB) leukemia)?
Its TGI is 1.23 µM.

And the GI50 (HOP-62 NSCLC)?
Its GI50 is 3.67 µM.

What about the TGI (HOP-62 NSCLC) of the same compound?
Its TGI is 7.95 µM.

And the GI50 (IGROV1 ovarian)?
The GI50 was 2.17 µM.

And the TGI (IGROV1 ovarian)?
Its TGI is 5.6 µM.

And the GI50 (OVCAR-3 ovarian)?
Its GI50 is 0.804 µM.

And the TGI (OVCAR-3 ovarian)?
Its TGI is 2.74 µM.

And the GI50 (UO-31 renal)?
Its GI50 is 3.23 µM.

What about the TGI (UO-31 renal) of the same compound?
Its TGI is 6.6 µM.

And the GI50 (KM12 colon)?
The GI50 was 2.54 µM.

What about the TGI (KM12 colon) of the same compound?
Its TGI is 5.67 µM.

What about the GI50 (NCI-H23 lung) of the same compound?
Its GI50 is 3.65 µM.

And the TGI (NCI-H23 lung)?
The TGI was 7.26 µM.

What about the GI50 (OVCAR-8 ovarian) of the same compound?
Its GI50 is 3.21 µM.

What about the TGI (OVCAR-8 ovarian) of the same compound?
Its TGI is 6.96 µM.

And the GI50 (BT-549 breast)?
Its GI50 is 4.29 µM.

And the TGI (BT-549 breast)?
Its TGI is 8.38 µM.

What about the GI50 (NCI-H226 lung) of the same compound?
Its GI50 is 4.12 µM.

What about the TGI (NCI-H226 lung) of the same compound?
Its TGI is 8.41 µM.

What about the GI50 (HOP-92 NSCLC) of the same compound?
The GI50 was 0.736 µM.

And the TGI (HOP-92 NSCLC)?
Its TGI is 4.01 µM.

And the GI50 (COLO 205 colon)?
Its GI50 is 1.14 µM.

And the TGI (COLO 205 colon)?
Its TGI is 4.77 µM.

What about the GI50 (SW-620 colon) of the same compound?
The GI50 was 0.549 µM.

What about the TGI (SW-620 colon) of the same compound?
Its TGI is 1.22 µM.

What about the GI50 (T-47D breast) of the same compound?
The GI50 was 3.17 µM.

And the TGI (T-47D breast)?
The TGI was 8.03 µM.

And the GI50 (SNB-75 CNS)?
Its GI50 is 3.32 µM.

And the TGI (SNB-75 CNS)?
Its TGI is 7.53 µM.

And the GI50 (NCI-H460 lung)?
Its GI50 is 2.67 µM.

And the TGI (NCI-H460 lung)?
The TGI was 6.03 µM.

What about the GI50 (MALME-3M melanoma) of the same compound?
The GI50 was 0.855 µM.

What about the TGI (MALME-3M melanoma) of the same compound?
The TGI was 3.3 µM.
